The values that follow come from US11746103B2, “ALK-5 inhibitors and uses thereof” (Sumitomo Pharma Oncology, Inc., priority 2020, dated 2023).

pIC50: −log10 of the molar value. Like-named read-outs stand apart in the source and are kept apart here.

The target of one assay is ALK-5 (Homo sapiens (Human), UniProt P36897). In words: LanthaScreen Eu Kinase Binding Assay, ALK-5. The note with it: for pIC50: read-out: Kinase Inhibition: ALK5 IC50. As to the method:
Activity determinations and selectivity were conducted by Thermo Fisher Scientific “SelectScreen™ Biochemical Kinase Profiling Service” using their “LanthaScreen™ Eu Kinase Binding Assay Screening” (www.thermofisher.com/selectscreen). Binding of an Alexa Fluor™ conjugate or “tracer” to a kinase is detected by addition of a Eu-labeled anti-tag antibody. Binding of the tracer and antibody to a kinase results in a high degree of FRET, whereas displacement of the tracer with a kinase inhibitor results in a loss of FRET. This assay is carried out by mixing the compound tested with the reagents and reading, no development step is required. Life Technologies' Kinase Tracers are based on ATP-competitive kinase inhibitors, making them suitable for detection of any compounds that bind to the ATP site. Inhibitors that bind the ATP site include both Type I kinase inhibitors, which bind solely to the ATP site, and Type II inhibitors (e.g., Gleevec®/Imatinib, Sorafenib, BIRB-796), which bind to both the ATP site and a second site often referred to as the allosteric site. […] For 10 point titrations, 3-fold serial dilutions are conducted from the starting concentration (see Table 2 below). [table] All Kinase/Antibody Mixtures are diluted to a 2× working concentration in the specified kinase buffer. The 4× AlexaFluor labeled Tracer is prepared in Kinase Buffer. Bar-coded, low volume, white 384-well plate (Greiner Cat. #784207) […] 2. 3.84 μL—Kinase Buffer […] 4. 4.0 μL—4× Tracer 5. 30-second plate shake 6. 60-minute incubation at room temperature 7. […] The LanthaScreen Eu Kinase Binding Assay data is analyzed using the equations in Table 3 for each set of data points. [table] Data generated were plotted using the graphing software XLfit from IDBS. The dose response curve is curve fit to model number 205.

The test system of assay [1] is TGF-beta induced SMAD signaling. As to the kind of experiment: RDSR (RD SMAD reporter) Cellular Reporter Assay. In kind it is cell-based. As to conditions: Homo sapiens; for pIC50: 200 pg/ml rhTGF-beta1, 24 h, read-out: RD-SMAD reporter activity. The source says:
TGF-β signaling is triggered when the activated TGF-β homodimer binds to the TGF-β receptor 2, which in turn leads to the recruitment and phosphorylation of TGF-β receptor 1 (ALK5). Activated TGF-β receptor 1 phosphorylates the signal transduction molecules SMAD2 and SMAD3. These bind to common mediator SMAD4 and translocate to the nucleus where they bind to short conserved DNA sequences called the SMAD binding element and induce the transcription of various target genes. […] Certain example compounds were also or alternatively assayed using the RDSR Cellular Reporter Assay. Overview and Design: The RD SMAD reporter (RDSR) cell line was generated by stabily integrating the SMAD cellular reporter plasmid (Promega, pGL4.48[luc2P/SBE/Hygro]) into the human rhabdomyosarcoma cell line RD (ATCC, CCL-136). Once SMAD signaling is triggered, with, for example, the addition of TGF-β 1, receptor activated SMADs bind the SMAD binding elements (SBEs) leading to the expression of intracellular luciferase. To determine the potency of compounds at inhibiting TGF-beta induced SMAD signaling, the RDSR reporter system was utilized. The rhabdomyosarcoma line RD (ATCC, CCL-136) was transfected with a SMAD reporter vector (Promega, E3671) and a polyclonal stable cell line was selected using hygromycin B. The transfected vector contains three copies of a SMAD-binding element (SBE) that drive transcription of the luciferase reporter gene luc2P (Photinus pyralis). luc2P is a synthetically-derived luciferase sequence with humanized codon optimization that is designed for high expression and reduced anomalous transcription. The luc2P gene contains hPEST, a protein destabilization sequence, which allows luc2P protein levels to respond more quickly than those of luc2 to induction of transcription. The intracellular luciferase is quantified by the addition of equal volume (100 μl) of ONE-GLO substrate (Promega, E6120) and read within ten minutes on the Envision plate reader. The stable RDSR cell line was tested by evaluating the response to human TGF-β1 (R&D Systems, 7754-BH-005) as well as human myostatin (R&D Systems, 788-G8-010/CF) in a concentration dependent manner after twenty-four hours of stimulation. […] For compound evaluation, the tool drugs Galunisertib and Vactosertib were included as positive controls. The tool drugs and the compounds of the invention being tested were all incubated with cells for one hour at 37° C. before stimulation with 200 pg/ml rhTGF-beta1 for twenty-four hours. The activity of the reporter was determined with the addition of ONE-GLO (Promega) substrate and luminescence counts collected on the Envision plate reader (Perkin Elmer). […] The activity of compounds of the invention as determined using this method are reported in the third column of Table 1, below.

Chain of ALK-5 (P36897 34-503): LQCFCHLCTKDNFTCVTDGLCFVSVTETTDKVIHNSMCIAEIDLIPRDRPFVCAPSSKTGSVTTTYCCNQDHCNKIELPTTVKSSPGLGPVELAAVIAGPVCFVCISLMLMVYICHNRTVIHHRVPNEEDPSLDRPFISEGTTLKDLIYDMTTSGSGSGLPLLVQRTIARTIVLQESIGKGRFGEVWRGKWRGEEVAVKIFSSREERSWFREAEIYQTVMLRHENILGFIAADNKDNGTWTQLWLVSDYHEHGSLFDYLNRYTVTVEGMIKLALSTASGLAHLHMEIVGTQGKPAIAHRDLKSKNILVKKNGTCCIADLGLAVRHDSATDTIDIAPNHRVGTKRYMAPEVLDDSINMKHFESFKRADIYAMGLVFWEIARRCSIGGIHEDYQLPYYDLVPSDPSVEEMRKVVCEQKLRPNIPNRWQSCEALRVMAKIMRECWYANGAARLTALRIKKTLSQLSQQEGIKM

With `Cc1cccc2c(Nc3ccnc(Nc4cccc(CN5CCOCC5)c4)n3)cnnc12` [EX-47, N4-(8-methylcinnolin-4-yl)-N2-(3-(morpholinomethyl)phenyl)pyrimidine-2,4-diamine], at ALK-5, the “Kinase Selectivity: ALK2 IC50/ ALK5 IC50” value was “(++) (10<ALK2/ALK5<100=[++])” and the pIC50 is above 8.00. Moreover, the pIC50 in assay [1] was above 7.00.

For `Cc1cc(F)cc2c(Nc3ccnc(Nc4ccc(N5CCNCC5)cc4)n3)cnnc12` [EX-15, N4-(6-fluoro-8-methyl-cinnolin-4-yl)-N2-(4-(piperazin-1-yl)phenyl)-pyrimidine-2,4-diamine], at ALK-5, the “Kinase Selectivity: ALK2 IC50/ ALK5 IC50” value was “(++) (10<ALK2/ALK5<100=[++])” and the pIC50 is above 8.00. Besides, in assay [1], the pIC50 is above 7.00.

As for `Cc1cccc2c(Nc3ccnc(Nc4ccc(N5CCNCC5)c(F)c4)n3)cnnc12` [EX-08, N2-(3-fluoro-4-(piperazin-1-yl)phenyl)-N4-(8-methylcinnolin-4-yl)pyrimidine-2,4-diamine], on ALK-5, the “Kinase Selectivity: ALK2 IC50/ ALK5 IC50” value is “(++) (10<ALK2/ALK5<100=[++])” and the pIC50 was above 8.00. Also, in assay [1] (24 h, read-out: RD-SMAD reporter activity (nM)), the IC50 is below 100 nM.

On to `Cc1cccc2c(Nc3ccnc(Nc4cccc(S(N)(=O)=O)c4)n3)cnnc12` [EX-35, 3-((4-((8-methylcinnolin-4-yl)amino)-pyrimidin-2-yl)amino)benzenesulfonamide], for which, at ALK-5, the “Kinase Selectivity: ALK2 IC50/ ALK5 IC50” value is “(+) (≤10=[+])” and the pIC50 is above 8.00. Besides, in assay [1], the pIC50 was above 7.00.

Turning to `Cc1cccc2c(Nc3ccnc(Nc4ccc(C5CCOCC5)cc4)n3)cnnc12` [EX-46, N4-(8-methylcinnolin-4-yl)-N2-(4-(tetrahydro-2H-pyran-4-yl)phenyl)pyrimidine-2,4-diamine], the “Kinase Selectivity: ALK2 IC50/ ALK5 IC50” value at ALK-5 is “(++) (10<ALK2/ALK5<100=[++])”. The figures for the pIC50 (at ALK-5; in assay [1]) were above 8.00 and above 7.00, respectively.

In the case of `Cc1cccc2c(Nc3ccnc(Nc4ccc(CC5CCNCC5)cc4)n3)cnnc12` [EX-05, N4-(8-methylcinnolin-4-yl)-N2-(4-(piperidin-4-ylmethyl)pheny)pyrimidine-2,4-diamine], on ALK-5, the “Kinase Selectivity: ALK2 IC50/ ALK5 IC50” value is “(++) (10<ALK2/ALK5<100=[++])” and the pIC50 is above 8.00. In assay [1], the pIC50 is 6.00 to 7.00.

For `Cc1cccc2c(Nc3ccnc(Nc4ccc(CN5CCNCC5)cc4)n3)cnnc12` [EX-20, N4-(8-methyl-cinnolin-4-yl)-N2-(4-(piperazin-1-yl-methyl)phenyl)pyrimidine-2,4-diamine], the “Kinase Selectivity: ALK2 IC50/ ALK5 IC50” value on ALK-5 is “(++) (10<ALK2/ALK5<100=[++])”. The figures for the pIC50 (at ALK-5; in assay [1]) were above 8.00 and above 7.00, respectively.

`c1cc(Nc2nccc(Nc3cnnc4c(C5CC5)cccc34)n2)cc(N2CCOCC2)c1` [EX-57, N4-(8-cyclopropylcinnolin-4-yl)-N2-(3-morpholinophenyl)pyrimidine-2,4-diamine]: at ALK-5, the “Kinase Selectivity: ALK2 IC50/ ALK5 IC50” value was “(++) (10<ALK2/ALK5<100=[++])” and the pIC50 is above 8.00. Further, the pIC50 in assay [1] is above 7.00.

Turning to `Cc1cccc2c(Nc3ccnc(Nc4ccc(N5CCN(C)CC5)c(F)c4)n3)cnnc12` [EX-53, N2-(3-fluoro-4-(4-methylpiperazin-1-yl)phenyl)-N4-(8-methylcinnolin-4-yl)pyrimidine-2,4-diamine], on ALK-5, the “Kinase Selectivity: ALK2 IC50/ ALK5 IC50” value is “(++) (10<ALK2/ALK5<100=[++])” and the pIC50 is above 8.00. Further, the pIC50 in assay [1] is above 7.00.

`Cc1c(F)ccc2c(Nc3ccnc(Nc4ccc(N5CCN(C)CC5)cc4)n3)cnnc12` [EX-01, N4-(7-fluoro-8-methylcinnolin-4-yl)-N2-(4-(4-methyl-piperazin-1-yl)-phenyl)-pyrimidine-2,4-diamine]: at ALK-5, the “Kinase Selectivity: ALK2 IC50/ ALK5 IC50” value is “(++) (10<ALK2/ALK5<100=[++])” and the pIC50 was above 8.00. Moreover, the pIC50 in assay [1] was above 7.00.

`Cc1cccc2c(Nc3ccnc(Nc4cc(F)cc(N5CCOCC5)c4)n3)cnnc12` [EX-44, N2-(3-fluoro-5-morpholinophenyl)-N4-(8-methylcinnolin-4-yl)pyrimidine-2,4-diamine]: on ALK-5, the “Kinase Selectivity: ALK2 IC50/ ALK5 IC50” value was “(++) (10<ALK2/ALK5<100=[++])” and the pIC50 was above 8.00. In assay [1], the pIC50 was above 7.00.

As to `Cc1c(F)ccc2c(Nc3ccnc(Nc4ccc(N5CCNCC5)cc4)n3)cnnc12` [EX-02, N4-(7-fluoro-8-methylcinnolin-4-yl)-N2-(4-(piperazin-1-yl)phenyl)-pyrimidine-2,4-diamine], on ALK-5, the “Kinase Selectivity: ALK2 IC50/ ALK5 IC50” value was “(++) (10<ALK2/ALK5<100=[++])” and the pIC50 was above 8.00. Moreover, the pIC50 in assay [1] is above 7.00.

On to `Cc1cccc2c(Nc3ccnc(Nc4ccc(N5CCNCC5)cc4)n3)cnnc12` [EX-48, N4-(8-methylcinnolin-4-yl)-N2-(4-(piperazin-1-yl)phenyl)pyrimidine-2,4-diamine], for which, at ALK-5, the “Kinase Selectivity: ALK2 IC50/ ALK5 IC50” value was “(++) (10<ALK2/ALK5<100=[++])” and the pIC50 is above 8.00. In assay [1], the pIC50 was above 7.00.

`Cc1cccc2c(Nc3ccnc(Nc4ccc(CN5CCN(C)CC5)c(C(F)(F)F)c4)n3)cnnc12` [EX-28, N4-(8-methylcinnolin-4-yl)-N2-(4-((4-methylpiperazin-1-yl)methyl)-3-(trifluoromethyl)phenyl)pyrimidine-2,4-diamine]: at ALK-5, the “Kinase Selectivity: ALK2 IC50/ ALK5 IC50” value was “(++) (10<ALK2/ALK5<100=[++])” and the pIC50 is above 8.00. Further, the pIC50 in assay [1] was above 7.00.

Take `Cc1cccc2c(Nc3ccnc(Nc4ccc(N5CC6CC5CN6C)cc4)n3)cnnc12` (stereo not drawn) [EX-45, N2-(4-(5-methyl-2,5-diazabicyclo[2.2.1]heptan-2-yl)phenyl)-N4-(8-methylcinnolin-4-yl)pyrimidine-2,4-diamine]: on ALK-5, the “Kinase Selectivity: ALK2 IC50/ ALK5 IC50” value was “(++) (10<ALK2/ALK5<100=[++])” and the pIC50 is above 8.00. Besides, the pIC50 in assay [1] was above 7.00.

Turning to `c1cc(C2CC2)c2nncc(Nc3ccnc(Nc4ccc(N5CCOCC5)cc4)n3)c2c1` [EX-58, N4-(8-cyclopropylcinnolin-4-yl)-N2-(4-morpholinophenyl)pyrimidine-2,4-diamine], on ALK-5, the “Kinase Selectivity: ALK2 IC50/ ALK5 IC50” value was “(++) (10<ALK2/ALK5<100=[++])” and the pIC50 is above 8.00. Besides, the pIC50 in assay [1] was above 7.00.

Consider `Cc1cccc2c(Nc3ccnc(Nc4ccc(N5CCNCC5)cc4F)n3)cnnc12` [EX-22, N2-(2-fluoro-4-(piperazin-1-yl)phenyl)-N4-(8-methylcinnolin-4-yl)pyrimidine-2,4-diamine], for which, at ALK-5, the “Kinase Selectivity: ALK2 IC50/ ALK5 IC50” value was “(+++) (100≤ALK2/ALK5=[+++])” and the pIC50 was above 8.00. Also, in assay [1], the pIC50 was above 7.00.

With `Cc1cccc2c(Nc3nc(Nc4ccc(N5CCN(C)CC5)cc4)ncc3F)cnnc12` [EX-32, 5-fluoro-N4-(8-methylcinnolin-4-yl)-N2-(4-(4-methylpiperazin-1-yl)phenyl)pyrimidine-2,4-diamine], at ALK-5, the “Kinase Selectivity: ALK2 IC50/ ALK5 IC50” value was “(++) (10<ALK2/ALK5<100=[++])” and the pIC50 is 7.00 to 8.00. Also, in assay [1], the pIC50 was 6.00 to 7.00.

As for `Cc1cccc2c(Nc3nc(Nc4ccc(N5CCNCC5)cc4)ncc3F)cnnc12` [EX-09, 5-fluoro-N4-(8-methyl-cinnolin-4-yl)-N2-(4-(piperazin-1-yl)phenyl)pyrimidine-2,4-diamine], on ALK-5, the “Kinase Selectivity: ALK2 IC50/ ALK5 IC50” value is “(+) (≤10=[+])” and the pIC50 was 7.00 to 8.00. Moreover, in assay [1], the pIC50 is 6.00 to 7.00.
